Test results taken from PubChem BioAssay (NCI).
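Grown in 96-well plates, cells were treated for 48 hours with each compound at five concentrations. Insufficient inhibition: endpoint recorded as highest concentration tested. GI50 = concentration required for 50% inhibition of growth. TGI: total growth inhibition.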

Assays:
Assay in all cases: inhibition of tumour cell growth, NCI panel, 48 h
[1] = system: EKVX NSCLC
[2] = system: IGROV1 ovarian
[3] = system: MALME-3M melanoma
[4] = system: SF-268 CNS
[5] = system: SF-539 CNS
[6] = system: TK-10 renal
[7] = system: UACC-62 melanoma
[8] = system: UO-31 renal
[9] = system: MDA-MB-435
[10] = system: HOP-92 NSCLC

SMILES	TGI [1] [µM]	TGI [2] [µM]	TGI [3] [µM]	TGI [4] [µM]	TGI [5] [µM]	TGI [6] [µM]	TGI [7] [µM]	TGI [8] [µM]	GI50 [2] [µM]	GI50 [3] [µM]	GI50 [9] [µM]	TGI [9] [µM]	GI50 [4] [µM]	GI50 [5] [µM]	GI50 [6] [µM]	GI50 [7] [µM]	GI50 [8] [µM]	GI50 [1] [µM]	GI50 [10] [µM]	TGI [10] [µM]
Cn1c(=O)oc2cc(C3CCC(=O)N3Cc3ccc(Cl)cc3)ccc21 (configuration not stated)	> 100	> 100	> 100	> 100	> 100	> 100	> 100	> 100	–	–	–	–	–	–	–	–	–	–	–	–
COc1ccc(-c2csc3c2-n2cccc2C3=O)cc1O	–	> 47.3	> 100	> 82.2	> 100	98.7	49.2	50.6	0.824	35.3	< 0.01	0.0102	< 0.0284	0.0226	17.6	0.387	0.401	–	–	–
COc1ccccc1NC(=O)CC(=O)NNCC(=O)Nc1nnc(-c2ccccc2)o1	> 100	> 100	–	> 100	> 100	> 100	> 100	> 100	–	–	–	–	–	–	–	–	–	–	–	–
O=C(CCCn1ccnc1[N+](=O)[O-])NCCn1ccnc1[N+](=O)[O-]	> 100	> 100	> 100	> 100	> 100	> 100	> 100	> 100	–	–	–	> 100	–	–	–	–	–	–	–	–
COc1ccc(-c2ccccc2)cc1-c1c(Nc2cc(Cl)cc(Cl)c2O)c(=O)c1=O	> 50	> 50	3.5	> 50	> 50	> 50	> 50	> 50	1.76	1.19	–	–	1.31	1.59	2.84	1.29	1.25	1.51	0.929	2.81
O=C(O)c1ccc(C2C3C=CC(C3)C2[N+](=O)[O-])cc1 (configuration not stated)	> 100	> 100	> 100	> 100	> 100	> 100	> 100	> 100	–	–	–	–	–	–	–	–	–	–	–	–
CC[C@@]1(O)C(=O)OCc2c1cc1n(c2=O)Cc2cc3c(NC(=O)CN)cccc3nc2-1	> 100	> 100	–	> 39.8	–	> 81.7	7.42	3.55	–	–	–	17.3	–	–	–	–	–	–	–	> 100
COc1ccc(C2=C(c3cc(OC)c(OC)c(OC)c3)C(=O)OC2)cc1OC	> 100	> 55.6	–	30.5	4.1	1.91	> 79.5	> 50.9	0.353	–	< 0.01	0.0109	0.0906	0.301	< 0.0283	0.336	0.284	34.5	6.65	> 100
CNC(=O)OCc1[nH]ccc2c(C)c3nc4ccc(OC)cc4c3cc12	> 100	> 100	> 77.8	> 100	> 31.8	> 79.1	> 56.7	> 53.9	–	–	–	–	–	–	–	–	–	–	–	> 100
O=C(O)CCCNS(=O)(=O)c1ccc2ccccc2c1	> 100	> 100	> 100	> 100	> 100	> 100	> 100	> 100	–	–	–	–	–	–	–	–	–	–	–	> 100
NC(N)=N/N=C/c1c(-c2ccc(Cl)c([N+](=O)[O-])c2)nc2ccccn12	13	2.85	–	2.93	1.53	–	–	3.79	1.36	–	–	–	1.35	0.122	–	–	1.71	2.5	–	–
CC(C)=CC1CC(C)C2(CCC3(C)CC4C(C(=O)CC4(C)O)/C(C=O)=C\CC32)O1 (configuration not stated)	0.346	0.296	–	0.275	0.239	0.0596	0.368	0.0989	–	–	–	0.197	–	–	–	–	–	–	–	0.2
CC1=CC2CC(C)C1(C)CCc1ccoc12 (configuration not stated)	> 100	> 100	> 100	> 100	> 100	> 100	> 100	> 100	–	–	–	–	–	–	–	–	–	–	–	> 100
O=[N+]([O-])c1ccc(N=Nc2c(O)[nH]c3ccccc23)cc1	> 72.1	41.4	45.2	58.7	9.36	> 51.2	> 100	39.3	–	–	–	> 100	–	–	–	–	–	–	–	–
CCOC(=O)C(=O)Nc1ccc(Cl)c(C(F)(F)F)c1	> 100	> 100	> 100	> 100	> 100	> 100	> 100	> 100	–	–	–	–	–	–	–	–	–	–	–	–
COC(=O)C1=Cc2c(cc(OC)c(OC)c2OC)[C@H](c2ccc(OC)c(OC)c2OC)C1C(=O)OC (some centres not stated)	> 100	> 100	> 100	> 100	> 100	> 100	> 100	> 100	–	–	–	–	–	–	–	–	–	–	–	> 100
COc1cc2c(c(OC)c1OC)-c1ccc(SC)c(=O)cc1C(CC(=O)Oc1cccc(C#N)c1)C2 (configuration not stated)	> 100	> 100	> 100	> 100	0.602	–	5.32	> 100	–	–	–	–	–	–	–	–	–	–	–	> 100
Oc1ccc(CN(Cc2ccc(C(F)(F)F)cc2)Cc2ccc(O)c3ncccc23)c2cccnc12	> 100	> 100	> 100	> 100	> 64.1	> 100	0.927	2.19	0.0584	0.0461	0.0214	> 100	0.0487	0.0465	0.0165	0.0395	0.0279	0.0482	–	–
C=C1C(=O)O[C@H]2C[C@@H]1CCC1(C)OC1CC/C(C)=C/CC[C@H]2C (some centres not stated)	44.3	96.8	–	37	50.6	31.8	31.3	86.6	35	–	18.9	34.6	18.7	28.8	17.6	17.5	29.8	24.3	–	–
CC(=O)O[C@H]1CC[C@@]2(C)C(=CC[C@@H]3C2CC[C@]2(C)Nc4[nH]ncc4CC32)C1 (some centres not stated)	> 100	> 100	86.1	–	40.4	> 100	57.1	> 100	–	–	–	–	–	–	–	–	–	–	–	–

SMILES	TGI [1] [µM]	TGI [2] [µM]	TGI [3] [µM]	TGI [4] [µM]	TGI [5] [µM]	TGI [6] [µM]	TGI [7] [µM]	TGI [8] [µM]	GI50 [2] [µM]	GI50 [3] [µM]	GI50 [9] [µM]	TGI [9] [µM]	GI50 [4] [µM]	GI50 [5] [µM]	GI50 [6] [µM]	GI50 [7] [µM]	GI50 [8] [µM]	GI50 [1] [µM]	GI50 [10] [µM]	TGI [10] [µM]
COc1cc2c3c(n(CCCNCCNCCCN)c(=O)c2cc1OC)-c1cc2c(cc1C3=O)OCO2	69.9	7.09	–	11.4	23.6	27	8.18	23.6	1.04	–	3.45	15.6	1.99	8.55	7.92	1.87	5.67	29.8	21	72.2
CCOC(=O)c1cnc2cc3cccccc3n2c1=O	> 100	> 100	–	> 100	> 100	> 100	> 100	> 100	–	–	–	–	–	–	–	–	–	–	–	–
COc1cc(OC)cc(-c2cncn2-c2ccc(-c3nc4cc(OC)cc(OC)c4s3)cc2)c1	–	> 100	–	> 100	> 100	> 100	> 100	–	5.07	–	–	–	11.3	5.76	16.8	4.75	–	–	–	–
O=CN1CCN(C=S)CC1	> 100	> 100	> 100	> 100	> 100	> 100	> 100	> 100	–	–	–	–	–	–	–	–	–	–	–	> 100
CC1CC2(CCC1OCc1ccccc1)OCCO2 (configuration not stated)	> 100	> 100	> 100	–	> 100	> 100	> 100	> 100	–	–	–	–	–	–	–	–	–	–	–	> 100
Cc1cc2c(cc1Br)C1(C)CCC(C)C1(C)O2 (configuration not stated)	> 100	> 100	42.1	> 100	> 100	> 100	> 100	> 100	–	–	–	–	–	–	–	–	–	–	–	53.7
C=CCN(CC=C)CC(C(C)=O)C(c1ccccc1)c1c(O)c2ccccc2oc1=O (configuration not stated)	> 100	> 100	> 100	> 100	> 100	> 100	> 100	> 100	–	–	–	–	–	–	–	–	–	–	–	> 100
Cc1ccc(Oc2nc3ccccc3cc2-c2nnc(Cn3c(COc4ccccc4)nc4ccccc43)o2)cc1	–	22	15.6	15.9	–	9.92	20.7	10.2	3.25	3.65	3.06	11.9	3.41	–	3.91	5.62	1.19	–	1.27	5.37
OCc1ccc(Oc2c3ccccc3nc3occc23)cc1	–	> 100	–	66.7	71	46.8	47.3	> 100	45.6	–	15.5	38.2	20.6	28.9	18.1	20	77.2	–	–	–
Cc1c(O)c(=O)ccn1CCO	> 100	–	> 100	> 100	–	> 100	> 100	> 100	–	–	–	–	–	–	–	–	–	–	–	> 100
COC(=O)[C@]12CC=C3O[C@@H]4OC5(CCCCC5)O[C@@H]4[C@H]3C1C(=O)C=CC2=O (some centres not stated)	52.1	34.5	34.2	30	34.8	31.4	30.2	30.8	–	–	–	–	–	–	–	–	–	–	–	33.1
CN1C(=O)C(c2c[nH]c3ccccc23)=C(c2c(-c3c[nH]c4ccccc34)[nH]c3ccccc23)C1=O	–	> 100	–	19.5	3.67	4.85	5.54	> 100	9.53	–	1.71	4.11	4.07	1.81	1.66	2.91	15.2	–	–	–
NC1=NC(c2ccc(F)cc2)C2=C(N1)c1ccc3ccccc3c1OCC2 (configuration not stated)	75.2	> 100	> 100	> 100	2.45	> 100	30.9	> 100	> 100	18.5	–	–	18.2	0.343	14.5	3.14	> 100	5.95	36.3	> 100
Clc1cc(Cl)cc(Nc2nc3ccccc3nc2-c2cccs2)c1	> 100	–	> 100	> 100	> 100	75.6	–	> 100	–	–	–	–	–	–	–	–	–	–	–	38.1
COc1ccc(/C=C\c2cc(OC)c(OC)c(OC)c2)cc1OCC(=O)Nc1nc2ccc(OC(F)(F)F)cc2s1	> 100	> 100	–	> 100	6.13	> 100	> 100	> 100	5.64	–	1.93	5.14	6.01	2.28	18.6	5.11	4.37	7.89	2.74	45.1
CO/N=C(/COc1c(-c2ccccc2)oc2ccccc2c1=O)c1ccc(F)cc1	> 100	90.7	> 100	–	> 100	95.7	> 100	> 100	22.1	52.9	> 100	> 100	–	85.6	27.2	96.1	> 100	> 100	–	–
COc1ccccc1NC(=O)C1=C(C)NC(C)=C(C(=O)Nc2ccccc2OC)C1c1cccc2c1OCO2	> 100	> 100	> 100	> 100	> 100	> 100	> 100	> 100	–	–	–	–	–	–	–	–	–	–	–	> 100
NC(=O)c1c2c(cc3c(=O)c4ccccc4[nH]c13)CCCC2	> 100	> 100	> 100	> 100	> 100	> 100	> 100	> 100	–	–	–	–	–	–	–	–	–	–	–	> 100
CCOC(=O)[C@H]1Nc2ccc(Cl)cc2[C@H]2c3ccccc3O[C@H]21	> 100	> 100	–	> 100	> 100	> 100	> 100	> 100	–	–	–	–	–	–	–	–	–	–	–	–
